Experimental data as given in US8168220B2, “Dosage forms of active ingredients containing hydroxystilbene for treating menopausal complaints” (priority 2005, dated 2012).
“Also recorded” adds a separate entry of the source.

What was measured:
[1] = molecular target: T1, estrogen receptor β (ERβ) (Homo sapiens, UniProt Q92731); assay: ERβ/mC3-luciferase transactivation in HEC-1B cells; format: cell-based; details: 24 hours incubation, FIG. 5
T1 construct: expressed in transfected cells; host or cells: HEC-1B cells (human endometrial adenocarcinoma; no endogenous ERα or ERβ), transient transfection with DOTAP
T1 sequence (Q92731 whole entry): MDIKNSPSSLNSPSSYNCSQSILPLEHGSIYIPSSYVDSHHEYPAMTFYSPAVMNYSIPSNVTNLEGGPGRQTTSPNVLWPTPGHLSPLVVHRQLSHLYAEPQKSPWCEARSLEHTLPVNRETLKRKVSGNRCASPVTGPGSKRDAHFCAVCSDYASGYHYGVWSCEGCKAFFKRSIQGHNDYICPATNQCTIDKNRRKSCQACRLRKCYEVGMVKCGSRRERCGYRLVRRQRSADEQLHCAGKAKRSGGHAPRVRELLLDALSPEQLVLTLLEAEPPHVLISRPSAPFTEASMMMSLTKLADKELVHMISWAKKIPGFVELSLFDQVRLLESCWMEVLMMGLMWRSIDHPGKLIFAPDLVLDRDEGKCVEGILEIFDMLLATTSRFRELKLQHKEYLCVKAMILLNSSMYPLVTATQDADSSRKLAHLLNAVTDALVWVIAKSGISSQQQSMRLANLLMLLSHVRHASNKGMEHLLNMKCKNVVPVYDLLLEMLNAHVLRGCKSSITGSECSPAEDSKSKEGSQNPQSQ
Source text: They therefore represent a possible way of investigating, in a human and endometrial context, ligand-dependent effects of substances on the transactivation mechanisms in relation to different receptor subtypes and different estrogen-responsive promoters.
An established ERβ/mC3-luciferase system was employed. For this purpose, HEC-1B cells were applied in 24-well plates with a density of 95 000 cells/well (in Dulbecco's modified Essential Medium (DMEM/F12)). The next day, they were cotransfected with an ERβ-containing construct (hERβ/pSG2) and a triple-ERE-containing promoter/luciferase construct (mC3-Luc/pGL2) (Hillisch et al. Dissecting physiological roles of estrogen receptor alpha and beta with potent selective ligands from structure-based design. Mol Endocrinol. 2004 July; 18:1599-609). The transient transfection took place using DOTAP (N-[1-(2,3-dioleoyloxy)]-N,N,N-trimethylammoniumpropane methyl-sulfate, Roth) as described by the manufacturer.
After 24 hours, the cells were treated with appropriate concentrations of the substances or substance mixtures to be investigated. […] The incubation time was 24 hours. The cells were then lysed. The Luciferase Assay® kit (Promega) was used to determine the luciferase activity on the one hand, and the BCA® kit (Sigma) was used to determine the protein content on the other hand. […]

[2] = Pharmacokinetics of ERr 731 ingredients in a subject (plasma LC-MS/MS); format: in vivo, human; details: 40 mg ERr 731 orally (10 tablets)
Procedure: Subsequently, 10 ml of blood was taken at various times (as indicated in FIG. 1) and the plasma was obtained by centrifugation.
These plasma samples were processed as follows: 500 μl of plasma were mixed with 25 μl of an internal standard working solution (2.5 ng/μl rhaponticin or rhapontigenin in methanol) and then mixed with 500 μl of isotonic NaCl solution and 2.5 ml of diethyl ether/butanol (9/1; v/v). After shaking and centrifugation (10 minutes at 4600 rpm), about 2 ml of the supernatant were removed and dried under a stream of nitrogen (at 60° C.). The pellet was taken up in 50 μl of methanol. Addition of 200 μl of distilled water was followed by renewed mixing, and 200 μl were pipetted into autosampler tubes (light-protected). 30 μl of the samples were injected for analysis into an LC-MS/MS system (PE Sciex API 3000). Chromatographic separation of the analytes took place on a Phenomenex Polymer X column with a gradient of an ammonium buffer solution and an acetonitrile/methanol mixture as mobile phase.

[3] = pH-dependent solubility of rhaponticin in aqueous solutions; format: physicochemical; details: acidic pH range (pH 3.4-3.6)
Source text: Use is made of this for its isolation. Since, besides other organic acids, the root in particular has a high content of oxalic acid (⅔ in water-soluble and ⅓ in bound form), this must be neutralized during the isolation in order to prevent the pH drifting into the acidic range and thus to inhibit premature precipitation of the rhaponticin. This is achieved by using calcium oxide. The latter is employed as quicklime solution with a pH of 12.4-12.6.

[4] = Dissolving tests with ERr 731 in ethanol and glycerol; format: physicochemical
Procedure: a) Dissolving Tests with ERr 731® in Ethanol and Glycerol:
Test A: 200 mg of dry extract in 50 ml of glycerol R:
Test B: 200 mg of dry extract in 50 ml of ethanol 30% R:
Test C: 200 mg of dry extract in 50 ml of ethanol 50% R:
Test D: 200 mg of dry extract in 50 ml of ethanol 86% R: […]

[5] = Test A: 200 mg of dry extract in 50 ml of glycerol R
[6] = Test B: 200 mg of dry extract in 50 ml of ethanol 30% R
[7] = Test C: 200 mg of dry extract in 50 ml of ethanol 50% R
[8] = Test D: 200 mg of dry extract in 50 ml of ethanol 86% R

Row | Structure (SMILES) | activation of ERβ (relative luciferase activity vs DMSO control) [1] | detection in the blood [2] | time of maximum in the blood [2] [h] | solubility in aqueous solutions [3] | content dissolved [4, 5] | content dissolved relative to theory [4, 5] | content dissolved [4, 6] | content dissolved relative to theory [4, 6] | content dissolved [4, 7] | content dissolved relative to theory [4, 7] | content dissolved [4, 8] | content dissolved relative to theory [4, 8]
1 | COc1ccc(C=Cc2cccc(O)c2)cc1O [deoxyrhapontigenin, 3′,5-Dihydroxy-4′-methoxystilbene] | activate the ERβ dose-dependently; also recorded: effective only at higher concentrations |  |  |  |  |  |  |  |  |  |  | 
2 | COc1ccc(C=Cc2cc(O)cc(O[C@@H]3O[C@H](CO)[C@@H](O)[C@H](O)[C@H]3O)c2)cc1O [rhaponticin, 3,3′,5-Trihydroxy-4′-methoxystilbene 3-O-β-D-glucopyranoside] |  | detected in the blood | 3 to 4 | precipitated as yellowish substance | 55.1% rhaponticin | (89.0% of theory) | 52.2% rhaponticin | (84.3% of theory) | 58.8% rhaponticin | (95.0% of theory) | 59.8% rhaponticin | (96.6% of theory)
3 | COc1ccc(C=Cc2cc(O)cc(O[C@@H]3O[C@H](CO)[C@@H](O)[C@H](O)[C@H]3O)c2)cc1 [deoxyrhaponticin] |  |  |  |  | 27.1% deoxyrhaponticin | (90.6% of theory) | 25.2% deoxyrhaponticin | (84.2% of theory) | 29.0% deoxyrhaponticin | (97.0% of theory) | 29.5% deoxyrhaponticin | (98.7% of theory)
